Data as given in US20160120186A1, “ENHANCEMENT AND CONTROL OF SEED GERMINATION WITH COMPOSITIONS COMPRISING A TRANSITION METAL CATALYST AND AN OXIDANT” (UNIVERSITY OF SASKATCHEWAN, priority 2013, published 2016).

Legend:
[1] = Delignification by per-acids (studies by the inventors)
[2] = Microbiocidal properties of per-acids (studies by the inventors)

Row | Structure (SMILES) | delignification of plant wall material [1] | microbiocidal properties [2]
1 | CC(=O)O[O-].[Na+] [peracetate] | very efficient delignification | very powerful microbiocidal properties
2 | O=COO [performate] | very efficient delignification | very powerful microbiocidal properties
